Test results: PubChem BioAssay AID1963427 (Molecular Pharmacology Branch, DTP, NCI, 2024)

System: 317291-083-R-J1-PDC complex spheroid growth
Assay: Anticancer human tumor 317291-083-R-J1-PDC patient-derived soft tissue sarcoma cell line growth inhibition [Asc]
Settings: for IC50: curve of first compound; for viability, T/C: stronger effect = lower value
Experimental: Multicellular complex tumor spheroid response to apoptosis pathway targeting inhibitors Alrizomadlin, Pelcitoclax, and Dasminapant in combination with a variety of drugs and investigational agents in selected tumor cell lines
The MDM2 inhibitor alrizomadlin, the Bcl-2/Bcl-xL inhibitor pelcitoclax, and the IAPs inhibitor dasminapant were evaluated both individually and in combination with standard of care and investigational anticancer small molecules within a complex spheroid model of solid tumors. . Complex spheroids include a stromal component modeled by human endothelial cells (HUVEC) and fibroblasts modeled by human mesenchymal stem cells (MSCs). The concentration ranges selected for each drug and investigational agent were based upon clinically achievable concentrations if the clinical Cmax of the agent was known.
Compounds. The drugs and investigational agents: alrizomadlin (APG-115; NSC831270), pelcitoclax (APG-1252; NSC835773), dasminapant (APG-1387;NSC834197), TAK-243 (NSC785004), copanlisib (NSC809693), olaparib (NSC753686), talazoparib (NSC767125), cobimetinib (NSC 768068), eltanexor (KPT-8602, NSC 794443), abemaciclib (NSC 768073), sotorasib (NSC818433), adagrasib (NSC 831453), MRTX-1133 (NSC 836407), Iadademestat (ORY1001, NSC 806812), and RMC-4630 (NSC839698), were obtained from the NCI Developmental Therapeutics Program Chemical Repository. The FDA-approved anticancer drug set is available from the Developmental Therapeutics Program at https://dtp.cancer.gov/organization/dscb/obtaining/available plates.htm. […] The stock solutions were prepared in dimethyl sulfoxide (DMSO, Sigma-Aldrich, St. Louis, MO, cat. D2650) at 800-fold the tested concentration and stored at -70 degrees C prior to their use. All drugs and investigational agents were tested over a range starting from a high concentration at or near the clinical Cmax and decreasing in half-log increments. If the clinical Cmax for an agent had not been determined, the highest concentration tested was 10 microM.
The patient-derived cancer (PDC) cell lines include five colon adenocarcinomas: 186277-243-T-J2-PDC, 616215-338-R-J1-PDC, 439559-082-T-J2-PDC, 463943-066-T-J2-PDC, and 519858-162-T-J1-PDC; three pancreatic carcinomas: 323965-272-R-J2-PDC, 521955-158-R6-J3-PDC, and 521955-158-R2-J5-PDC; two uterine sarcomas: 327498-152-R-J2-PDC and 993429-296-R-J1-PDC; two rhabdomyosarcomas: 755483-174-R-J1-PDC and 772245-204-R-J1-PDC; two soft tissue sarcomas: 126254-015-R-J1-PDC and 494315-158-R-J1-PDC; two malignant fibrous histiocytomas: 317291-083-R-J1-PDC and 596521-263-R-J1-PDC; two breast carcinomas: 171881-019-R-J1-PDC and 885512-296-R-J2-PDC; and one ovarian carcinoma: 6556581-035-R-J-PDC were obtained from the NCI PDMR, (https://pdmr.cancer.gov). The established cell lines HSSY-2 synovial sarcoma (RRID:CVCL 8719), SYO-1 synovial sarcoma (RRID:CVCL_7146), MPNST malignant peripheral neural sheath tumor were obtained from the Sloan Kettering Institute. The following established cell lines were purchased from the American Type Culture Collection (ATCC, Manassas, VA), Sor the received from the NCI repository:, PANC-1 pancreatic carcinoma (CRL-1469, RRID:CVCL_0480), OVCAR-5 ovarian carcinoma (RRID:CVCL_1628), OVCAR-8 ovarian carcinoma (RRID:CVCL_1629), , MCF-7 breast carcinoma (CRL-12584, RRID:CVCL_0031), MDA-MB-231 breast carcinoma (CRL-12532, RRID:CVCL_0062), NCI-H1876 small cell lung carcinoma (CRL-5902, RRID:CVCL_1503), NCI-H510A small cell lung carcinoma (HTB-184, RRID:CVCL_1565), NCI-H1417 (CRL-5869, RRID:CVCL_1469), and NCI-H196 small cell lung carcinoma (CRL-5823, RRID:CVCL_1509). Dr. Peter Houghton (Greehey Children's Cancer Research Institute, University of Texas Health Science Center, San Antonio, TX) provided Rh-18 rhabdomyosarcoma (RRID:CVCL_1659). Pooled donor human umbilical vein endothelial cells (HUVEC, Lonza, cat. CC-2519) and human mesenchymal stem cells (hMSC, Lonza, cat. PT-2501) were purchased from Lonza (Walkersville, MD).
Cell Culture. […]

[1] = second compound 0.00949 µM, first compound 0.0316 µM
[2] = second compound 0.00949 µM, first compound 0.1 µM
[3] = second compound 0.03 µM, first compound 0.0316 µM
[4] = second compound 0.03 µM, first compound 0.1 µM
[5] = second compound 0.0949 µM, first compound 0.0316 µM
[6] = second compound 0.0949 µM, first compound 0.1 µM
[7] = second compound 0.3 µM, first compound 0.0316 µM
[8] = second compound 0.3 µM, first compound 0.1 µM
[9] = second compound 0.949 µM, first compound 0.0316 µM
[10] = second compound 0.949 µM, first compound 0.1 µM
[11] = second compound 3 µM, first compound 0.0316 µM
[12] = second compound 3 µM, first compound 0.1 µM
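Note: compound exposure lasted seven days after spheroids formed for three days.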
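Throughout, for viability, T/C: 100% = DMSO vehicle control wells.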

## Cn1ncnc1[C@H]1c2n[nH]c(=O)c3cc(F)cc(c23)N[C@@H]1c1ccc(F)cc1 + CCN1C(C(=O)NC23CCC(C(=O)O)(CC2)CC3)C(c2cccc(Cl)c2F)C2(C(=O)Nc3cc(Cl)ccc32)C12CCCCC2
Second compound 0.00949 µM
  IC50: > 0.1 µM
Second compound 0.03 µM
  IC50: > 0.1 µM
Second compound 0.0949 µM
  IC50: > 0.1 µM
Second compound 0.3 µM
  IC50: > 0.1 µM
Second compound 0.949 µM
  IC50: > 0.1 µM
Second compound 3 µM
  IC50: > 0.1 µM
Second compound 0.00949 µM, first compound 0.000316 µM
  viability, T/C: 108%
Second compound 0.00949 µM, first compound 0.001 µM
  viability, T/C: 88.4%
Second compound 0.00949 µM, first compound 0.00316 µM
  viability, T/C: 102%
Second compound 0.00949 µM, first compound 0.01 µM
  viability, T/C: 100%
[1]
  viability, T/C: 81.9%
[2]
  viability, T/C: 66.9%
Second compound 0.03 µM, first compound 0.000316 µM
  viability, T/C: 99.6%
Second compound 0.03 µM, first compound 0.001 µM
  viability, T/C: 107%
Second compound 0.03 µM, first compound 0.00316 µM
  viability, T/C: 105%
Second compound 0.03 µM, first compound 0.01 µM
  viability, T/C: 81.3%
[3]
  viability, T/C: 76.1%
[4]
  viability, T/C: 87.3%
Second compound 0.0949 µM, first compound 0.000316 µM
  viability, T/C: 95.3%
Second compound 0.0949 µM, first compound 0.001 µM
  viability, T/C: 96%
Second compound 0.0949 µM, first compound 0.00316 µM
  viability, T/C: 103%
Second compound 0.0949 µM, first compound 0.01 µM
  viability, T/C: 86.3%
[5]
  viability, T/C: 77.6%
[6]
  viability, T/C: 70.4%
Second compound 0.3 µM, first compound 0.000316 µM
  viability, T/C: 106%
Second compound 0.3 µM, first compound 0.001 µM
  viability, T/C: 101%
Second compound 0.3 µM, first compound 0.00316 µM
  viability, T/C: 107%
Second compound 0.3 µM, first compound 0.01 µM
  viability, T/C: 89.5%
[7]
  viability, T/C: 73.9%
[8]
  viability, T/C: 64.6%
Second compound 0.949 µM, first compound 0.000316 µM
  viability, T/C: 95.4%
Second compound 0.949 µM, first compound 0.001 µM
  viability, T/C: 89.3%
Second compound 0.949 µM, first compound 0.00316 µM
  viability, T/C: 103%
Second compound 0.949 µM, first compound 0.01 µM
  viability, T/C: 93.6%
[9]
  viability, T/C: 75.8%
[10]
  viability, T/C: 72.1%
Second compound 3 µM, first compound 0.000316 µM
  viability, T/C: 82%
Second compound 3 µM, first compound 0.001 µM
  viability, T/C: 69%
Second compound 3 µM, first compound 0.00316 µM
  viability, T/C: 77.4%
Second compound 3 µM, first compound 0.01 µM
  viability, T/C: 79.7%
[11]
  viability, T/C: 65.1%
[12]
  viability, T/C: 62.7%

## O=C(c1cc(Cc2n[nH]c(=O)c3ccccc23)ccc1F)N1CCN(C(=O)C2CC2)CC1 + CCN1C(C(=O)NC23CCC(C(=O)O)(CC2)CC3)C(c2cccc(Cl)c2F)C2(C(=O)Nc3cc(Cl)ccc32)C12CCCCC2
Second compound 0.00949 µM
  IC50: 9.4 µM
Second compound 0.03 µM
  IC50: > 10 µM
Second compound 0.0949 µM
  IC50: > 10 µM
Second compound 0.3 µM
  IC50: 9.47 µM
Second compound 0.949 µM
  IC50: > 10 µM
Second compound 3 µM
  IC50: 7.68 µM
[1]
  viability, T/C: 111%
[2]
  viability, T/C: 108%
Second compound 0.00949 µM, first compound 0.316 µM
  viability, T/C: 108%
Second compound 0.00949 µM, first compound 1 µM
  viability, T/C: 86.9%
Second compound 0.00949 µM, first compound 3.16 µM
  viability, T/C: 92.7%
Second compound 0.00949 µM, first compound 10 µM
  viability, T/C: 46.2%
[3]
  viability, T/C: 110%
[4]
  viability, T/C: 101%
Second compound 0.03 µM, first compound 0.316 µM
  viability, T/C: 102%
Second compound 0.03 µM, first compound 1 µM
  viability, T/C: 104%
Second compound 0.03 µM, first compound 3.16 µM
  viability, T/C: 81.7%
Second compound 0.03 µM, first compound 10 µM
  viability, T/C: 54.6%
[5]
  viability, T/C: 101%
[6]
  viability, T/C: 105%
Second compound 0.0949 µM, first compound 0.316 µM
  viability, T/C: 92.1%
Second compound 0.0949 µM, first compound 1 µM
  viability, T/C: 104%
Second compound 0.0949 µM, first compound 3.16 µM
  viability, T/C: 77.2%
Second compound 0.0949 µM, first compound 10 µM
  viability, T/C: 53%
[7]
  viability, T/C: 116%
[8]
  viability, T/C: 114%
Second compound 0.3 µM, first compound 0.316 µM
  viability, T/C: 102%
Second compound 0.3 µM, first compound 1 µM
  viability, T/C: 91.2%
Second compound 0.3 µM, first compound 3.16 µM
  viability, T/C: 93.2%
Second compound 0.3 µM, first compound 10 µM
  viability, T/C: 46.2%
[9]
  viability, T/C: 107%
[10]
  viability, T/C: 109%
Second compound 0.949 µM, first compound 0.316 µM
  viability, T/C: 107%
Second compound 0.949 µM, first compound 1 µM
  viability, T/C: 92.4%
Second compound 0.949 µM, first compound 3.16 µM
  viability, T/C: 88.9%
Second compound 0.949 µM, first compound 10 µM
  viability, T/C: 51.9%
[11]
  viability, T/C: 88.2%
[12]
  viability, T/C: 85.3%
Second compound 3 µM, first compound 0.316 µM
  viability, T/C: 81.1%
Second compound 3 µM, first compound 1 µM
  viability, T/C: 83.3%
Second compound 3 µM, first compound 3.16 µM
  viability, T/C: 77.1%
Second compound 3 µM, first compound 10 µM
  viability, T/C: 41.8%
